Measured values as given in PMC8822125, “RW-BP100-4D, a Promising Antimicrobial Candidate With Broad-Spectrum Bactericidal Activity” (Frontiers in Microbiology, 2022).
In brackets after ≈: the same amount, converted by molar mass. Where a SMILES comes first, the peptide text is derived from it.

Experiments:
sheep red blood cells = sheep red blood cells in PBS, 37°C, 1 h, OD576, relative to melittin, mean ± SD, three repeats; for Hemolytic rate, 50 μg/mL: 50 μg/mL peptide; for Hemolytic rate, 100 μg/mL: 100 μg/mL peptide; for Hemolytic rate, 150 μg/mL: 150 μg/mL peptide; for Hemolytic rate, 300 μg/mL: 300 μg/mL peptide;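 as to all read-outs here: hemolysis expressed in % from supernatant absorbance, with PBS-treated cells as 0% baseline and melittin as 100%, peptide mixed 1:1 with an 8% v/v erythrocyte suspension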
RAW264.7 cells = conditions: peptide 150 μg/mL, 24 h, WST-1, mean ± SD, three repeats
MAC-T cells = conditions: peptide 150 μg/mL, 24 h, WST-1, mean ± SD, three repeats
[1] = system: Escherichia coli ATCC25922; conditions: Table 1; broth microdilution CLSI M100-S25, MH broth, 37°C, 18 h, three independent repeats
[2] = system: Staphylococcus aureus ATCC29213; assay: MIC/MBC, broth microdilution; type: cell-based; conditions: Table 1; broth microdilution CLSI M100-S25, MH broth, 37°C, 18 h, three independent repeats
various microorganisms = assay: MIC/MBC, summary statements over several strains; type: cell-based; conditions: summary of Table 1

Row | SMILES | Hemolytic rate, 50 μg/mL (sheep red blood cells) [%] | Hemolytic rate, 100 μg/mL (sheep red blood cells) [%] | Hemolytic rate, 150 μg/mL (sheep red blood cells) [%] | Hemolytic rate, 300 μg/mL (sheep red blood cells) [%] | Cell survival rate, RAW264.7 (RAW264.7 cells) [%] | Cell survival rate, MAC-T (MAC-T cells) [%] | MIC Escherichia coli ATCC25922 [1] [µg/mL] | MIC Staphylococcus aureus ATCC29213 [2] [µg/mL] | MIC against S. aureus ATCC29213 and E. coli ATCC25922 (both strains together) (various microorganisms) [µg/mL]
1 | CC[C@@H](C)[C@@H](NC(=O)[C@H](CCCNC(=N)N)NC(=O)[C@H](CCCNC(=N)N)NC(=O)[C@H](Cc1ccccc1)NC(=O)[C@H](CC(C)C)NC(=O)[C@H](CCCNC(=N)N)NC(=O)[C@@H](N)CCCNC(=N)N)C(=O)N[C@@H](CC(C)C)C(=O)N[C@@H](CCCNC(=N)N)C(=O)N[C@@H](Cc1c[nH]c2ccccc12)C(=O)N[C@@H](CC(C)C)C(N)=O [RW-BP100-7D] (HELM PEPTIDE1{R.R.L.F.R.R.[dI].L.R.W.L.[am]}$$$$V2.0) | 0.53 ± 1.12 | 1.11 ± 0.19 | 16.17 ± 3.36 | 45.65 ± 5.13 | 93.74 ± 1.25 | 96.41 ± 3.75 | 25 (≈ 15.8 µM) | 25 (≈ 15.8 µM) | 
2 | CC[C@H](C)[C@H](NC(=O)[C@H](CCCNC(=N)N)NC(=O)[C@H](CCCNC(=N)N)NC(=O)[C@H](Cc1ccccc1)NC(=O)[C@H](CC(C)C)NC(=O)[C@H](CCCNC(=N)N)NC(=O)[C@@H](N)CCCNC(=N)N)C(=O)N[C@H](CC(C)C)C(=O)N[C@@H](CCCNC(=N)N)C(=O)N[C@@H](Cc1c[nH]c2ccccc12)C(=O)N[C@@H](CC(C)C)C(N)=O [RW-BP100-8D] (HELM PEPTIDE1{R.R.L.F.R.R.I.[dL].R.W.L.[am]}$$$$V2.0) | 0.91 ± 0.38 | 1.38 ± 0.58 | 26.19 ± 0.10 | 50.11 ± 3.17 | 20.30 ± 3.26 | 54.78 ± 2.65 | 12 (≈ 7.58 µM) | 12 (≈ 7.58 µM) | 3 to 12
3 | CC[C@H](C)[C@H](NC(=O)[C@H](CCCNC(=N)N)NC(=O)[C@H](CCCNC(=N)N)NC(=O)[C@H](Cc1ccccc1)NC(=O)[C@H](CC(C)C)NC(=O)[C@H](CCCNC(=N)N)NC(=O)[C@@H](N)CCCNC(=N)N)C(=O)N[C@@H](CC(C)C)C(=O)N[C@H](CCCNC(=N)N)C(=O)N[C@@H](Cc1c[nH]c2ccccc12)C(=O)N[C@@H](CC(C)C)C(N)=O [RW-BP100-9D] (HELM PEPTIDE1{R.R.L.F.R.R.I.L.[dR].W.L.[am]}$$$$V2.0) | 0.63 ± 0.24 | 1.53 ± 0.09 | 18.14 ± 0.20 | 45.18 ± 2.41 | 91.33 ± 5.63 | 92.50 ± 2.36 | 25 (≈ 15.8 µM) | 25 (≈ 15.8 µM) | 
4 | CC[C@H](C)[C@H](NC(=O)[C@H](CCCNC(=N)N)NC(=O)[C@H](CCCNC(=N)N)NC(=O)[C@H](Cc1ccccc1)NC(=O)[C@H](CC(C)C)NC(=O)[C@H](CCCNC(=N)N)NC(=O)[C@@H](N)CCCNC(=N)N)C(=O)N[C@@H](CC(C)C)C(=O)N[C@@H](CCCNC(=N)N)C(=O)N[C@H](Cc1c[nH]c2ccccc12)C(=O)N[C@@H](CC(C)C)C(N)=O [RW-BP100-10D] (HELM PEPTIDE1{R.R.L.F.R.R.I.L.R.[dW].L.[am]}$$$$V2.0) | 0.31 ± 0.37 | 1.28 ± 0.19 | 19.20 ± 2.16 | 45.08 ± 4.70 | 92.19 ± 6.32 | 94.41 ± 4.26 | 50 (≈ 31.6 µM) | 50 (≈ 31.6 µM) | 
5 | CC[C@H](C)[C@H](NC(=O)[C@H](CCCNC(=N)N)NC(=O)[C@H](CCCNC(=N)N)NC(=O)[C@H](Cc1ccccc1)NC(=O)[C@H](CC(C)C)NC(=O)[C@H](CCCNC(=N)N)NC(=O)[C@@H](N)CCCNC(=N)N)C(=O)N[C@@H](CC(C)C)C(=O)N[C@@H](CCCNC(=N)N)C(=O)N[C@@H](Cc1c[nH]c2ccccc12)C(=O)N[C@H](CC(C)C)C(N)=O [RW-BP100-11D] (HELM PEPTIDE1{R.R.L.F.R.R.I.L.R.W.[dL].[am]}$$$$V2.0) | 0.65 ± 0.60 | 1.42 ± 0.15 | 17.36 ± 1.92 | 46.97 ± 6.45 | 83.27 ± 4.56 | 77.81 ± 5.28 | >50 | >50 | > 50
